Reference: PMC11232109, “Synthesis, anticancer evaluation of novel hybrid pyrazole-based chalcones, molecular docking, DNA fragmentation, and gene expression: in vitro studies” (RSC Advances, 2024)
Values joined by “and” are separate entries in the source; they are usually repeats but may differ in a detail not shown here. Identical values can stand only once. Marks after values point to notes of the source that are not given here.

Tests used:
Assay type in all cases: cell-based, human
Bcl-2 = assay: qPCR gene expression of Bcl-2 in MCF7 cells; conditions: treatment with IC50 conc., negative control = 1
Method: (§1) Total RNA was isolated from breast and pancreatic cancer cell lines according to the manufacturer's protocol using RNeasy Mini Kit (Qiagen) supplemented with the DNaseI (Qiagen) digestion step. To digest DNA residues, the isolated total RNA was treated with one unit of RQ1 RNAse-free DNAse (Invitrogen), re-suspended in DEPC-treated water, and quantified using a spectrophotometer at 260 nm. The purity of total RNA was assessed by the 260/280 nm ratio, which was between 1.8 and 2.1. Moreover, RNA integrity was assured by ethidium bromide-stain analysis of 28S and 18S bands by formaldehyde-containing agarose gel electrophoresis. Complete poly(A)+ RNA isolated from breast and pancreatic cell lines was reverse-transcribed into cDNA in a total volume of 20 μl using the RevertAidTM First Strand cDNA Synthesis Kit (Fermentas). […] Subsequently, the reaction tubes containing RT preparations were flash-cooled in an ice chamber until used for cDNA amplification using a quantitative real-time polymerase chain reaction (qRT-PCR).
(§2) Determination of the breast and pancreatic cell line cDNA copy number was carried out using the StepOne™ Real-Time PCR system from Applied Biosystems (Thermo Fisher Scientific). […] The relative quantification of the target to the reference was performed using the 2^−ΔΔCT method (Yang et al., 2017).[51]

CDK4 = assay: qPCR gene expression of CDK4 in MCF7 cells; conditions: treatment with IC50 conc., negative control = 1
Method: as §1, §2

P21 = assay: qPCR gene expression of P21 in MCF7 cells; conditions: treatment with IC50 conc., negative control = 1
Method: as §1, §2

MCF7 cell lines = assay: DNA fragmentation assay, MCF7; conditions: for DNA fragmentation, Inhibition (%): MCF7; for DNA fragmentation (%) M ± SEM: MCF7, 24 hours of exposure, −ve control 8.6 ± 0.36; for DNA fragmentation, Change: MCF7, change versus −ve control
Method: (§3) The DNA fragmentation assay in breast and pancreatic cancer cell lines was performed in accordance with the method of Helmy et al., 2022 (ref. [15]) with some modifications. Briefly, after 24 hours of exposure of breast and pancreatic cancer cell lines to the tested chalcone compounds in different Petri dishes (60 × 15 mm, Greiner), the cells were trypsinized, suspended, homogenized in 1 ml of medium, and centrifuged (10 min at 800 rpm). Low-molecular-weight genomic DNA was extracted as described in Yawata et al., 1998.[52] Approximately 1 × 10^6 cells were plated and treated with the tested substances in various treatments. All the cells (including floating cells) were harvested by trypsinization and washed with Dulbecco's phosphate-buffered saline. Cells were lysed with the lysis buffer containing 10 mM Tris (pH 7.4), 150 mM NaCl, 5 mM EDTA, and 0.5% Triton X-100 for 30 minutes on ice. Lysates were vortexed and cleared by centrifugation at 10 000 g for 20 min. Fragmented DNA in the supernatant was extracted with an equal volume of a neutral phenol/chloroform/isoamyl alcohol mixture (25 : 24 : 1) and analyzed electrophoretically on 2% agarose gels containing 0.1 μg ml^−1 ethidium bromide.

P53 = assay: qPCR gene expression of P53 in PACA2 cells; conditions: treatment with IC50 conc., negative control = 1
Method: as §1, §2

BID = assay: qPCR gene expression of BID in PACA2 cells; conditions: treatment with IC50 conc., negative control = 1
Method: as §1, §2

CCND1 = assay: qPCR gene expression of CCND1 in PACA2 cells; conditions: treatment with IC50 conc., negative control = 1
Method: as §1, §2

PACA2 cell lines = assay: DNA fragmentation assay, PACA2; conditions: for DNA fragmentation, Inhibition (%): PACA2; for DNA fragmentation (%) M ± SEM: PACA2, 24 hours of exposure, −ve control 8.3 ± 0.31; for DNA fragmentation, Change: PACA2, change versus −ve control
Method: as §3

Paca2 = assay: Comet assay (DNA damage), pancreatic cancer cell line; conditions: for DNA damaged cells% (mean ± SEM): Paca2, comet assay, −ve 10.12 ± 0.85; for No. of cells, Class 0 / No. of cells, Class 1 / No. of cells, Class 2 / No. of cells, Class 3: Paca2, of 405 cells; for No. of cells, Class 0: class 0 = no tail; for No. of cells, Class 1: class 1 = tail length < diameter of nucleus; for No. of cells, Class 2: class 2 = tail length between 1× and 2× the diameter of nucleus; for No. of cells, Class 3: class 3 = tail length > 2× the diameter of nucleus
Method: Olive et al. (1990) used pancreatic and breast cancer cell lines to measure the DNA damage using the comet test.[53] Approximately 1.5 × 10^4 cells were imbedded in 0.75% low-gelling-temperature agarose after trypsin treatment to generate a single-cell suspension, which was then quickly pipetted onto a pre-coated microscope slide. Cell samples were lysed in 0.5% SDS, 30 mM EDTA, pH 8.0, for four hours at 50 °C. Samples were electrophoresed for 25 minutes at 0.6 V cm^−1 after being rinsed overnight at room temperature in Tris/borate/EDTA buffer, pH 8.0. Propidium iodide was then added for staining. A fluorescent microscope equipped with a CCD camera was used to observe the slides, and 150 unique comet photos from each sample were examined to determine the tail moment, DNA content, and percentage of DNA in the tail. To find the fraction of cells with DNA damage that resemble comets in each sample, around 100 cells were analyzed. Based on perceived comet tail length migration and relative proportion of DNA in the nucleus, the non-overlapping cells were randomly chosen and visually assigned a score on an arbitrary scale of 0–3. Class 0 = no detectable DNA damage and no tail; class 1 = tail with a length less than the nucleus diameter; class 2 = tail with length between 1× and 2× the nuclear diameter; and class 3 = tail longer than 2× the nucleus diameter.[54]

Compound	Gene expression Bcl-2 (Bcl-2)	Gene expression CDK4 (CDK4)	Gene expression P21 (P21)	DNA fragmentation, Inhibition (%) (MCF7 cell lines)	DNA fragmentation (%) M ± SEM (MCF7 cell lines)	DNA fragmentation, Change (MCF7 cell lines)	Gene expression P53 (P53)	Gene expression BID (BID)	Gene expression CCND1 (CCND1)	DNA fragmentation, Inhibition (%) (PACA2 cell lines)	DNA fragmentation (%) M ± SEM (PACA2 cell lines)	DNA fragmentation, Change (PACA2 cell lines)	No. of cells, Class 0 (Paca2)	No. of cells, Class 1 (Paca2)	No. of cells, Class 2 (Paca2)	No. of cells, Class 3 (Paca2)	further results
Cc1nn(-c2ccccc2)c(C=CC(=O)c2c(-c3cccs3)nn(-c3ccc([N+](=O)[O-])cc3)c2C)c1Cl [Compound 7d, 3-(4-Chloro-3-methyl-1-phenyl-1H-pyrazol-5-yl)-1-(5-methyl-1-(4-nitrophenyl)-3-(thiophen-2-yl)-1H-pyrazol-4-yl)prop-2-en-1-one]	0.64 fold change/GAPDH	0.43 fold change/GAPDH	3.95 fold change/GAPDH	20.48%	21.8 ± 0.94% and 21.8 ± 0.94^a %	13.2											
Cc1c(C(=O)C=Cc2nn(-c3ccccc3)cc2-c2ccc([N+](=O)[O-])cc2)c(-c2cccs2)nn1-c1ccc([N+](=O)[O-])cc1 [Compound 9e, 1-(5-Methyl-1-(4-nitrophenyl)-3-(thiophen-2-yl)-1H-pyrazol-4-yl)-3-(4-(4-nitrophenyl)-1-phenyl-1H-pyrazol-3-yl)prop-2-en-1-one]							3.89 fold change/GAPDH	0.48 fold change/GAPDH	0.64 fold change/GAPDH	24.45%	24.2 ± 0.57% and 24.2 ± 0.57^a %	15.9	290	35	37	43	DNA damaged cells% (mean ± SEM) (Paca2): 28.40 ± 1.04% and 28.40 ± 1.04^a %; No. of cells, Comets (Paca2; Paca2, of 405 cells analyzed): 115
COc1cccc2c1C(=O)c1c(O)c3c(c(O)c1C2=O)C[C@@](O)(C(=O)CO)C[C@@H]3O[C@H]1C[C@H](N)[C@H](O)[C@H](C)O1 [Doxorubicin, reference compound]	0.56 fold change/GAPDH	0.39 fold change/GAPDH	4.18 fold change/GAPDH	23.67%	25.2 ± 0.65%	16.6	2.21 fold change/GAPDH	0.69 fold change/GAPDH	0.79 fold change/GAPDH	17.94%	21.5 ± 0.46%	13.2	299	38	32	36	DNA fragmentation (%) M ± SEM (MCF7 cell lines; listed as MCF7 +ve control): 25.2 ± 0.65^a %; DNA fragmentation (%) M ± SEM (PACA2 cell lines; listed as PACA (+ve) control): 21.5 ± 0.46^a %; DNA damaged cells% (mean ± SEM) (Paca2; listed as Dox): 26.17 ± 1.38% and 26.17 ± 1.38^a %
